Data: article PMC6099841, “New Chromane-Based Derivatives as Inhibitors of Mycobacterium tuberculosis Salicylate Synthase (MbtI): Preliminary Biological Evaluation and Molecular Modeling Studies” (Molecules : A Journal of Synthetic Chemistry and Natural …, 2018)
Like-named read-outs stand apart in the source and are kept apart here.

Columns and labels:
Test in all cases: biochemical
salicylate synthase MbtI [1] = biological target: T1, salicylate synthase MbtI (Mycobacterium tuberculosis, UniProt P9WFX1)
T1 sequence (P9WFX1 whole entry): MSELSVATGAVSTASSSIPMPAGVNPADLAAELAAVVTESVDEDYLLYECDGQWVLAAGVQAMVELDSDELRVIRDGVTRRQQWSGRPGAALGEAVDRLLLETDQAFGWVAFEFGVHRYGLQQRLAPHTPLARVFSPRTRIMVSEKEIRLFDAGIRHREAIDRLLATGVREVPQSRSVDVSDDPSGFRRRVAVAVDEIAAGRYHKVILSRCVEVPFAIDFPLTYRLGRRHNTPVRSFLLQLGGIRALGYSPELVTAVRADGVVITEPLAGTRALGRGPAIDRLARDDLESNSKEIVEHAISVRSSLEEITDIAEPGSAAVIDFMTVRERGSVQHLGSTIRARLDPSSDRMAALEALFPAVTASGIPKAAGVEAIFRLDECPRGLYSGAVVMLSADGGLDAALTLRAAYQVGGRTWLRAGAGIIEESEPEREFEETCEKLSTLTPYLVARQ

salicylate synthase MbtI [2] = biological target: T1, salicylate synthase MbtI; remark: listed apart in the source
salicylate synthase MbtI [3] = biological target: T1, salicylate synthase MbtI; conditions: read-out: MbtI Residual Activity at 100 μM

CC=C(Oc1cccc(C(=O)O)c1O)C(=O)O [I, (1-carboxyprop-1-enyloxy)-2-hydroxybenzoic acid]
IC50 (salicylate synthase MbtI [1]): 11.6 ± 2.4 µM

CC1CC(=O)c2c(cc(O)cc2C(=O)O)O1 (stereo not shown) [compound 1, 7-Hydroxy-2-methyl-4-oxo-3,4-dihydro-2H-benzopyran-5-carboxylic acid]
IC50 (salicylate synthase MbtI [2]; read-out: IC50): 55.8 ± 4.2 µM

O=C(O)c1cc(O)cc2c1C(=O)CCO2 [compound 2, 7-Hydroxy-4-oxo-3,4-dihydro-2H-benzopyran-5-carboxylic acid]
IC50 (salicylate synthase MbtI [2]; read-out: MbtI IC50): 61.3 ± 5.3 µM

CC1CCc2c(cc(O)cc2C(=O)O)O1 (stereo not shown) [compound 5, 7-Hydroxy-2-methylchroman-5-carboxylic acid]
remaining activity at 100 µM (salicylate synthase MbtI [3]): 50.1 ± 7.1%
